Results taken from patent US8519127B2, “Cyclic glycyl-2-allyl proline and its use in treatment of peripheral neuropathy” (priority 2003, dated 2013).

What was measured:
[1] = tested on: pyridoxine-intoxicated rats; assay: Pyridoxine-induced peripheral neuropathy: body weight and beam walk errors; type: in vivo, rat; conditions: for body weight (percentage of baseline weight): pyridoxine 400 mg/kg i.p. b.i.d. days 1-8, vs vehicle, FIG. 5
Procedure: […] Sprague-Dawley rats were habituated to walk across a wooden beam (4 cm diameter, 175 cm long, circular cross-section) over a training period of 8 days prior to initiating neuropathic toxicity treatment. Animals were weighed on the day prior to pyridoxine injection (mean body weight 270 g) and were randomized into treatment groups as follows: vehicle control (distilled water, n=16), 3 mg/kg cG-2-allylP (n=16) or 30 mg/kg cG-2-allylP (n=16). All groups received pyridoxine (400 mg/kg i.p.) 2/day for 8 days (days 1-8) and either vehicle or cG-2-allylP (3 or 30 mg/kg, p.o.) 1/day on days 1-10. Body weights were monitored throughout treatment and until study day 28. Beam walking was assessed on days 0 (baseline), 14, 21, and 28. Beam walk errors were assessed according to the method of Callizot (Callizot et al, Pyridoxine-Induced Neuropathy in Rats: a Sensory neuropathy that Responds to 4-methylcatechol, Neurobiol. Dis. 8:626-635 (2001.)) incorporated herein fully by reference. Each rat was scored for 7 steps taken in traversing the beam, as follows: 1=hind-paw placed on the top of the beam (normal); 2=paw contacted the lateral line of the beam; 3=paw overlapping the lateral line on the beam; 4=rat unable to place its feet on the beam. Rats that could walk across the beam therefore recorded a maximum functional deficit score of 28. Rats unable to take 7 steps along the beam scored 30, while rats unable to balance on the beam at all scored 32.
Two-way analysis of variance (ANOVA) was conducted on beam walk performance data, with time and treatment as variables, applying Bonferroni post-hoc tests to assess individual treatment condition differences. Statistical significance was assumed if p<0.05.

[2] = tested on: diabetic rats; assay: Streptozotocin-induced diabetic neuropathy, tactile allodynia (von Frey hairs); type: in vivo, rat; conditions: 3-30 mg/kg p.o. 1/day for 14 days; STZ-diabetic rats
Procedure: Rats (225-250 g) are rendered diabetic by an i.p. injection of streptozotocin (STZ; 75 mg/kg). A diabetic condition is confirmed in each rat 10 days later by measurement of tail vein blood glucose levels. Only rats with a final blood glucose level>13.8 mM are considered diabetic and are included in the experiment.
Hyperglycemic, diabetic rats are dosed with cG-2-allylP (3-30 mg/kg, p.o. 1/day) from day 14 until day 28 (for a total of 14 days of treatment). Glucose measurements are taken on day 14 (pre-dose), day 21, day 28 and day 42.
Rats are tested for tactile allodynia on days 14 (pre-dose), and on days 16, 21, 28, 35 and 42 using van Frey hairs. Rats are tested for responsivity to von Frey hairs with calibrated bending forces of 1.5-15 g, to deliver punctate mechanical stimuli of varying intensities. Filaments exerting a force above 15 g are not used. Starting with the lowest filament force (1.5 g), von Frey hairs are applied to the plantar surface of the hind paw, with sufficient force to cause slight bending against the paw, and held for 1 s. Each stimulation is applied five times with an inter-stimulus interval of 5-10 s. Care is taken to stimulate random locations on the plantar surface. A positive response is noted if the paw was robustly and immediately withdrawn. […]

[3] = tested on: cleaved caspase-3 protein; conditions: rats exposed to hypoxia/ischaemia; cited from earlier work
[4] = tested on: rats exposed to hypoxic-ischemic injury (HI); assay: Hypoxic-ischemic injury (modified Levine model), histological tissue damage score; type: in vivo, rat
Procedure: To determine whether cG-2AllylP might prevent neuronal injury in response to stroke, cardiac arterial bypass graft surgery (CABG) or other hypoxic insults, a series of studies were carried out in rats that had been exposed to hypoxic-ischemic injury (HI). Adult rats (Wistar, 280-310 g, male) were used. The modified Levine model preparation and experimental procedures were used (Rice et al, 1981, Ann. Neural.: 9: 131-141; Guan et al J., 1993, Cereb. Blood Flow Metab.: 13(4): 609-16). These procedures in brief, consist of an HI injury induced by unilateral carotid artery ligation followed by inhalational asphyxia in the animals with an implanted lateral ventricular cannula. A guide cannula was stereotaxically placed on the top of the dura 1.5 mm to the right of the mid-line and 7.5 mm anterior to the interaural zero plane under halothane anaesthesia. The right carotid artery was double ligated two days after the cannulation. After 1 hour recovery from the anaesthesia, each of the rats were placed in an incubator where the humidity (90±5%) and temperature (31°±0.5° C.) were controlled for another hour, then exposed to hypoxia (6% oxygen) for 10 min, The animals were kept in the incubator for an additional 2 hours before treatment.
Nine pairs of rats were treated intracerebral ventricularly (icy) with either cG-2AllylP (2 ng) or its vehicle (normal saline) 2 hours after hypoxic-ischemic insult. Rats in each group were simultaneously infused with cG-2AllylP or its vehicle under light anaesthesia (1.5% halothane) 2 hours after the insult. […]
Coronal sections 8 μm in thickness were cut from the striatum, cerebral cortex and hippocampus and were stained with thionin and acid fuchsin. The histological outcome was assessed at three levels: (1) the mid level of the striatum, (2) where the completed hippocampus first appeared and (3) the level where the ventral horn of the hippocampus just appears. The severity of tissue damage was scored in the striatum, cortex and the CA1-2, CA3, CA4 and dentate gyrus of the hippocampus. […]

[5] = tested on: microglia; conditions: response to hypoxia-ischemia in rat model; cited from earlier work
[6] = tested on: cerebellar neurons; assay: Cerebellar microexplants exposed to glutamate and 3-nitropropionic acid; live neurons with neurites counted; type: cell-based, rat; conditions: for number of cells having neurites: administered simultaneously with glutamate, FIG. 1 / FIG. 2; for glutamate-induced neurotoxicity: low doses (cG-2AllylP: 100 pm to 10 nm)
Procedure: Cover slips were placed into a large Petri dish and washed in 70% alcohol for 5 minutes, then washed with Millipore H2O. The cover slips were air dried, and coated with Poly-D-Lysine (1 mg/ml stock solution in PBS, 90-100 μl) for 2 hours at 34° C.
Postnatal day 8 Wistar rats were used for the study. The rats were sacrificed and placed in ice for 1 minute, decapitated and the cerebellum removed and placed on ice. Cerebellum tissue was placed in 1 ml of 0.65% glucose-supplemented PBS (10 μl 65% stock D (+)glucose/1 ml PBS) in a large Petri dish, chopped up into smaller sections and triturated with a 1 ml insulin syringe via a 23 G (0.4 mm) needle, and then squirted back into the glucose solution in the large Petri dish. The tissue was sieved through (125 μm pore size gauze) and centrifuged (2 minutes at 60 g) twice to exchange the medium into serum-free BSA-supplemented START V medium (Biochrom, Germany). The second centrifugation step was done with 1 ml of START V medium. The microexplants were reconstituted into 500 μl of START V medium and put on ice.
Two hours after PDL-coating, the slides were washed with Millipore H2O and air dried. Each slide was placed into a small Petri dish (diameter: 35 mm) and 40 μl of START V/cell suspension was added. The tissue was incubated for 2 hours at 34° C. (settlement period). START V-medium (1 ml) was then added to the Petri dish and cultivated at 34° C. in the presence of 5% CO2 in air at 100% humidity for 48 hours.
For the study, certain explant cultures were exposed to vehicle (PBS) only. In the first study (Study 1) 10 μl of toxin 1 (L-glutamate-100 mM in Millipore water; final concentration: 1 mM) and 10 μl of toxin 2 (3-nitropropionic acid-50 mM-pH 7-in Millipore water, final concentration: 0.5 mM) was applied simultaneously with the drug to be tested ([…]). In each case, the drugs were left in contact with the explants for the duration of the study.
After explants were exposed to drugs for the study period, cells were then rinsed in PBS and then fixed in increasing concentrations of paraformaldehyde (500 μl of 0.4% PFA was applied; then 1.2% PFA; then 3% PFA and finally 4% PFA (each fixation step: 2-3 minutes). Finally, the microexplants were rinsed in PBS.
Neurons in the explants were then evaluated for morphology (presence of neurites) and counted as live cells per microscopic field. Four fields displaying highest cell density were counted per cover slip and the data presented as mean±standard error of the mean (SEM); n=4 each. Statistical significance was evaluated by using the non-paired Student's t-test.

With C=CC[C@]12CCCN1C(=O)CNC2=O [cG-2-allylP, (8aS)-Allyl-hexahydropyrrolo[1,2-a]pyrazine-1,4-dione] the “body weight (percentage of baseline weight)” value ([1]; 3 mg/kg p.o. 1/day days 1-10) was “significantly attenuated the effect of pyridoxine on body weight on test day 9”, the “body weight (percentage of baseline weight)” value ([1]; 3 mg/kg p.o. 1/day days 1-10, listed as cG-2allylP) was “greater gain of body weight than in animals treated with pyridoxine alone” and the “body weight (percentage of baseline weight)” value ([1]; 30 mg/kg p.o. 1/day days 1-10) was “significantly attenuate pyridoxine-mediated body weight loss on days 9, 14, 21 and 28”. The “body weight (percentage of baseline weight)” value ([1]; 30 mg/kg p.o. 1/day days 1-10, listed as cG-2allylP) was “greater gain of body weight than in animals treated with pyridoxine alone”, the beam walking errors ([1]; 30 mg/kg p.o. days 1-10, test days 14, 21, 28, p<0.05 vs vehicle, FIG. 6) was “effectively prevented pyridoxine-induced beam walking errors” and the “pain threshold in response to von Frey hair pressure to hind paws” value [2] was “increase the pain threshold”. The “expression of cleaved caspase-3 protein in the cerebral cortex” value [3] was “decreased expression of cleaved caspase-3 protein in the cerebral cortex”, the tissue damage score ([4]; 2 ng icv 2 hours after hypoxic-ischemic insult, histology 5 days after injury, vs vehicle, p<0.001, FIG. 3) was “significantly reduced the tissue damage in each brain region examined” and the neuronal damage scores ([4]; 2, 4, 20, 100 ng icv 2 hours after insult, all sites and doses other than 100 ng in striatum, FIG. 4) was “lessened the neural damage effects of hypoxia/ischemia”. The “efficacy by brain region” value ([4]; regions with progressive injury such as dentate gyrus and cerebral cortex, FIG. 4) was “increased efficacy in brain regions that experienced progressive injury associated with delayed cell death”, the activation of microglia [5] was “reduce activation of microglia” and the “number of cells having neurites” value [6] was “significantly increased the numbers of cells having neurites in a dose-dependent manner”. The glutamate-induced neurotoxicity [6] was “significant decrease in glutamate-induced neurotoxicity”.

For C[C@@]12CCCN1C(=O)C1(CCCC1)NC2=O [Cyclic cyclopentyl-G-2MeP, (8aS)-Methyl-spiro[cyclopentane-1,3(4H)-tetrahydropyrrolo[1,2-a]pyrazine]-1,4(2H)-dione], the “number of cells having neurites” value [6] was “significantly increased the number of cells having neurites” and the glutamate-induced neurotoxicity [6] was “significant decrease in glutamate-induced neurotoxicity”.

For N[C@@H](CCC(=O)O)C(=O)O [Glutamate, L-glutamate, reference compound], the “loss of cerebellar neurons having neurites” value ([6]; glutamate 1 mM, compared to vehicle-treated controls, FIG. 1) was roughly 85%.
